Reference: patent US10722484B2, “Methods of cancer treatment” (K-Gen, Inc., priority 2016, dated 2020)
Blank lines part the entries; values can stand above or below the molecule they belong to.

Experiments:
[1] = tested on: HL-60 human promyelocytic leukemia cells; test: Combination viability/proliferation assays
Method: (§2) Briefly, cells at density of 1,000-10,000 cells/well in 96-well plates or 200-1600 cells/well in 384-well plates were seeded and incubated at 37° C. for 24 hours before addition of compounds. A series of 9 different concentrations of compound stocks (500×) were prepared by 3-fold serial dilutions in DMSO. […] After 96 hours of incubation, 35 μL or 50 μL of CellTiter Glo reagent (Promega) was added to each well and luminescence was measured after 10 minutes using EnVision (PerkinElmer). Luminescence from cells treated with DMSO alone was set as Max and % of inhibition was calculated as follows: Inhibition %=(Max-Sample value)/Max*100. Data were analyzed using XLfit software (ID Business Solutions Ltd.) or GraphPad software and IC50, relative IC50, and % of top inhibition were calculated.
(§3) The top concentration for the tested PKC activator compound was set at roughly the IC50 when the same testing compound was used as a single agent assayed in the same cell line. The next dose was either 3-fold or 10-fold dilution from the top concentration.

[2] = tested on: THP-1 human acute monocytic leukemia cells; test: Combination viability/proliferation assays; conditions: K101A (0.3 μM) and K102 (0.005 μM)
Method: as §2, §3

[3] = tested on: Mino (Mantle cell lymphoma); test: Combination viability/proliferation assays; conditions: Mino; K101A (0.1 μM) or K102 (0.001 μM); especially below 0.1 μM cytarabine
Method: as §2
Various drugs or compounds (Table 10) were screened and assayed in 384-well plates as 9-point 3-fold dilution series alone and in combination with 2-3 doses of the specified PKC activator compounds (e.g., K101A, K101E, and K102). The top concentration for the tested PKC activator compound was set at roughly the IC50 when the same testing compound was used as a single agent assayed in the same cell line. The next dose was either 3-fold or 10-fold dilution from the top concentration.
The PKC activating agents (e.g., K101A, K101E, and K102) in combination with other chemotherapeutic agents, including standard chemotherapies and certain chemotherapeutic agents targeting certain cell signaling pathways, were also examined on cancer cells other than lung cancer cells.

Panc2.13 = test: Combination viability/proliferation assays; assay type: cell-based; conditions: for effect in combination with K101A: Panc2.13, K101A at 1 μM or at 0.67 μM
Method: (§1) A 96-well MacSynergy II format for combination test was also used. […] The analysis was done with the SQRT(Data) scale and the four parameter Hill curve was fitted using XLfit5.1 (the MacSynergy II Excel Spreadsheet) for the inhibition data. Synergy (positive number) or Antagonism (negative number) volumes were calculated. […] Three-dimensional MacSynergy II graphs were generated where positive values indicated synergism and negative values indicated antagonism.

Panc1 = test: Combination viability/proliferation assays; assay type: cell-based; conditions: for Combination effect, Panel: K102: agent in combination with K102
Method: as §1

[4] = tested on: A549 lung cancer cell line; test: Combination viability/proliferation assays (384-well IC50 ratio, 96-well MacSynergy II); assay type: cell-based; conditions: for effect in combination with the PKC activator compounds in inhibiting the growth of A549 cells: PKC activator compounds (K101A, K101E, K102); for Combination in A549: K101A (synergism/antagonism): agent assayed in combination with K101A; for Combination in A549: K101A (synergism/antagonism) / Combination in A549: K102 (synergism/antagonism): * 2-3 concentrations, # full concentration ranges; for Combination in A549: K101E (synergism/antagonism): agent assayed in combination with K101E; for Combination in A549: K102 (synergism/antagonism): agent assayed in combination with K102
[5] = tested on: colon cancer cell line Colo205; test: MacSynergy combination experiments; assay type: cell-based
Method: as §1

[6] = tested on: MV-4-11 human myelomonocytic leukemia; test: Combination viability/proliferation assays; conditions: K101A (0.1 μM) or K102 (0.01 μM)
Method: as §2, §3

[7] = tested on: Namalwa (Burkitt's lymphoma); test: Combination viability/proliferation assays; conditions: K101A (0.1 μM) or K102 (0.001 μM)
Method: as §2
Various drugs or compounds (Table 10) were screened and assayed in 384-well plates as 9-point 3-fold dilution series alone and in combination with 2-3 doses of the specified PKC activator compounds (e.g., K101A, K101E, and K102). The top concentration for the tested PKC activator compound was set at roughly the IC50 when the same testing compound was used as a single agent assayed in the same cell line. The next dose was either 3-fold or 10-fold dilution from the top concentration. […]

MiaPaCa-2 = test: Combination viability/proliferation assays; assay type: cell-based; conditions: K101A (0.166 and 1 μM) or K102 (0.0017 and 0.005 μM)
Method: as §1

[8] = A549, in combination with 0.005 μM K101A, NC: no change
[9] = A549, in combination with 0.05 μM K101A, NC: no change
[10] = A549, in combination with 0.5 μM K101A, ratio >2 synergistic, <0.5 antagonistic, NC: no change

SMILES: Nc1ccn([C@@H]2O[C@H](CO)[C@@H](O)[C@@H]2O)c(=O)n1 [Cytarabine]
effect in combination with K101A and K102 [1]: strong synergy
shift of the inhibition curve to the left ([1]; in combination with K101A (0.3 μM)): half-log
shift of the inhibition curve to the left ([1]; in combination with K102 (0.005 μM)): full-log
effect in combination with K101A and K102 [2]: synergy
effect in combination with K101A or K102 [3]: synergistic anti-proliferative effect

SMILES: N.N.[Cl][Pt][Cl] [Cisplatin]
effect in combination with K101A (Panc2.13): strong synergy
Combination effect, Panc2.13: K101A (Panc2.13; agent in combination with K101A): Synergism
effect at highest concentrations of combination agents (Panc1; Panc1, with K101A or K102): Slight antagonism
Combination effect, Panel: K102 (Panc1): None
Combination effect, Panel: K102 (Panc1; listed as cisplatin): not
dose range for the strongest synergy ([4]; A549, cisplatin combined with PKC activator compounds (FIG. 6A)): 0.625 to 2.5 µM
Ratio ([…] DMSO IC50/combination IC50) [4, 8]: 0.53
Ratio ([…] DMSO IC50/combination IC50) ([4]; A549, in combination with 0.04 μM K102 (footnote, Cisplatin)): 2.61
Ratio ([…] DMSO IC50/combination IC50) [4, 9]: 0.86
Ratio ([…] DMSO IC50/combination IC50) ([4]; A549, in combination with 0.13 μM K102 (footnote, Cisplatin)): 2.52
Ratio ([…] DMSO IC50/combination IC50) [4, 10]: 2.68
Ratio ([…] DMSO IC50/combination IC50) ([4]; A549, in combination with 1 μM K101E (footnote, Cisplatin)): 1.37
Ratio ([…] DMSO IC50/combination IC50) ([4]; A549, in combination with 3 μM K101E (footnote, Cisplatin)): 1.75
synergy at cisplatin dose levels higher than […] ([4]; A549, with PKC activator compounds): minimal synergy
effect in combination with the PKC activator compounds in inhibiting the growth of A549 cells [4]: strong synergistic effect
Combination in A549: K101A (synergism/antagonism) ([4]; A549): Synergism (strong)
Combination in A549: K101E (synergism/antagonism) ([4]; A549): None
Combination in A549: K102 (synergism/antagonism) ([4]; A549): Synergism (strong)
synergy volume (MacSynergy) ([5]; Colo205, in combination with K101A (column not headed)): 49
synergy volume (MacSynergy) ([5]; Colo205, in combination with K102 (column not headed)): 41

SMILES: CC1=C(/C=C/C(C)=C/C=C/C(C)=C/C(=O)O)C(C)(C)CCC1 [ATRA, all-trans-retinoic acid]
effect in combination with K101A and K102 [1]: strong synergy
shift of the inhibition curve up ([1]; addition of K101A (0.3 μM) or K102 (0.005 μM), after subtracting inhibition by K101A or K102 alone): 5-40%
shift of the inhibition curve up [6]: 5-20%

Ratio ([…] DMSO IC50/combination IC50) ([4]; A549, in combination with 0.0002 μM K102, NC: no change): 0.81
Ratio ([…] DMSO IC50/combination IC50) ([4]; A549, in combination with 0.002 μM K102, NC: no change): 1.76
Ratio ([…] DMSO IC50/combination IC50) [4, 8]: 1.04
Ratio ([…] DMSO IC50/combination IC50) ([4]; A549, in combination with 0.02 μM K102, NC: no change): 3.55
Ratio ([…] DMSO IC50/combination IC50) [4, 9]: 1.89
Ratio ([…] DMSO IC50/combination IC50) [4, 10]: 5.05
SMILES: CC[C@H](Nc1ncnc2[nH]cnc12)c1nc2cccc(F)c2c(=O)n1-c1ccccc1 [Idelalisib]
effect in combination with the PKC activator compounds in inhibiting the growth of A549 cells [4]: strong synergy
Combination in A549: K101A (synergism/antagonism) ([4]; A549): Synergism
Combination in A549: K101E (synergism/antagonism) ([4]; A549): Synergism
Combination in A549: K102 (synergism/antagonism) ([4]; A549): Synergism
effect in combination with K101A or K102 [7]: synergistic anti-proliferative effect
increase of inhibition ([7]; roughly 0.03-3 μM idelalisib/CAL-101): at least 20%

Ratio ([…] DMSO IC50/combination IC50) ([4]; A549, in combination with 0.013 μM K102): >2
Ratio ([…] DMSO IC50/combination IC50) ([4]; A549, in combination with 0.04 μM K102): >2
Ratio ([…] DMSO IC50/combination IC50) ([4]; A549, in combination with 0.33 uM K101A): 2.55
Ratio ([…] DMSO IC50/combination IC50) ([4]; A549, in combination with 1 uM K101A): 4.23
SMILES: O=c1nc(-c2ccc(C(F)(F)F)cc2)[nH]c2c1CSCC2 [XAV-939, 2-[4-(trifluoromethyl)phenyl]-1,5,7,8-tetrahydrothiopyrano[4,3-d]pyrimidin-4-one]
effect in combination with K101A (Panc2.13): strong synergy
effect in combination with low doses of K101A or K102 (MiaPaCa-2): additive effects
effect in combination with K101A or K102 in inhibiting the growth of A549 cells ([4]; K101A or K102): strong synergistic effect
Combination in A549: K101A (synergism/antagonism) ([4]; A549): Synergism
Combination in A549: K102 (synergism/antagonism) ([4]; A549): Synergism
